In BigSolDB 2.1:

C=CC(=O)NC(C)(C)CS(=O)(=O)O
Conditions | solubility (mole fraction)
in 1,4-dioxane, 288.15 K | 0.000105
in 1,4-dioxane, 293.15 K | 0.000168
in 1,4-dioxane, 298.15 K | 0.000274
in 1,4-dioxane, 303.15 K | 0.000425
in 1,4-dioxane, 308.15 K | 0.000657
in 1,4-dioxane, 313.15 K | 0.000978
in 1,4-dioxane, 318.15 K | 0.00139
in 1,4-dioxane, 323.15 K | 0.00195
in 1,4-dioxane, 328.15 K | 0.00268
in acetone, 283.15 K | 0.00625
in acetone, 288.15 K | 0.00695
in acetone, 293.15 K | 0.00795
in acetone, 298.15 K | 0.00921
in acetone, 303.15 K | 0.0107
in acetone, 308.15 K | 0.0126
in acetone, 313.15 K | 0.0148
in acetone, 318.15 K | 0.0173
in acetone, 323.15 K | 0.0205
in acetone, 328.15 K | 0.0244
in acetonitrile, 283.15 K | 3.11e-05
in acetonitrile, 288.15 K | 5.19e-05
in acetonitrile, 293.15 K | 9.14e-05
in acetonitrile, 298.15 K | 0.000154
in acetonitrile, 303.15 K | 0.000265
in acetonitrile, 308.15 K | 0.000436
in acetonitrile, 313.15 K | 0.000696
in acetonitrile, 318.15 K | 0.00107
in acetonitrile, 323.15 K | 0.0016
in acetonitrile, 328.15 K | 0.00237
in cyclohexane, 283.15 K | 2.64e-05
in cyclohexane, 288.15 K | 4.73e-05
in cyclohexane, 293.15 K | 7.77e-05
in cyclohexane, 298.15 K | 0.000139
in cyclohexane, 303.15 K | 0.000229
in cyclohexane, 308.15 K | 0.000359
in cyclohexane, 313.15 K | 0.000567
in cyclohexane, 318.15 K | 0.000867
in cyclohexane, 323.15 K | 0.00125
in cyclohexane, 328.15 K | 0.00179
in ethanol, 283.15 K | 0.00721
in ethanol, 288.15 K | 0.00794
in ethanol, 293.15 K | 0.00893
in ethanol, 298.15 K | 0.0102
in ethanol, 303.15 K | 0.0118
in ethanol, 308.15 K | 0.0138
in ethanol, 313.15 K | 0.0161
in ethanol, 318.15 K | 0.0189
in ethanol, 323.15 K | 0.0225
in ethanol, 328.15 K | 0.0264
in ethyl acetate, 283.15 K | 0.00106
in ethyl acetate, 288.15 K | 0.00142
in ethyl acetate, 293.15 K | 0.00198
in ethyl acetate, 298.15 K | 0.00262
in ethyl acetate, 303.15 K | 0.00338
in ethyl acetate, 308.15 K | 0.00431
in ethyl acetate, 313.15 K | 0.00543
in ethyl acetate, 318.15 K | 0.00672
in ethyl acetate, 323.15 K | 0.00829
in ethyl acetate, 328.15 K | 0.0103
in ethylene glycol, 283.15 K | 0.000463
in ethylene glycol, 288.15 K | 0.000687
in ethylene glycol, 293.15 K | 0.00105
in ethylene glycol, 298.15 K | 0.00162
in ethylene glycol, 303.15 K | 0.00237
in ethylene glycol, 308.15 K | 0.00329
in ethylene glycol, 313.15 K | 0.00444
in ethylene glycol, 318.15 K | 0.00583
in ethylene glycol, 323.15 K | 0.00757
in ethylene glycol, 328.15 K | 0.00972
in isobutanol, 283.15 K | 0.00229
in isobutanol, 288.15 K | 0.00267
in isobutanol, 293.15 K | 0.00322
in isobutanol, 298.15 K | 0.00394
in isobutanol, 303.15 K | 0.00485
in isobutanol, 308.15 K | 0.00596
in isobutanol, 313.15 K | 0.00728
in isobutanol, 318.15 K | 0.00885
in isobutanol, 323.15 K | 0.0107
in isobutanol, 328.15 K | 0.0131
in isopropanol, 283.15 K | 0.000208
in isopropanol, 288.15 K | 0.000333
in isopropanol, 293.15 K | 0.00056
in isopropanol, 298.15 K | 0.000882
in isopropanol, 303.15 K | 0.00129
in isopropanol, 308.15 K | 0.00186
in isopropanol, 313.15 K | 0.00266
in isopropanol, 318.15 K | 0.00373
in isopropanol, 323.15 K | 0.00508
in isopropanol, 328.15 K | 0.00671
in methanol, 283.15 K | 0.00916
in methanol, 288.15 K | 0.0103
in methanol, 293.15 K | 0.0117
in methanol, 298.15 K | 0.0138
in methanol, 303.15 K | 0.0163
in methanol, 308.15 K | 0.0193
in methanol, 313.15 K | 0.0227
in methanol, 318.15 K | 0.0268
in methanol, 323.15 K | 0.0322
in methanol, 328.15 K | 0.0383
in n-butanol, 283.15 K | 0.00359
in n-butanol, 288.15 K | 0.00403
in n-butanol, 293.15 K | 0.00468
in n-butanol, 298.15 K | 0.0055
in n-butanol, 303.15 K | 0.00649
in n-butanol, 308.15 K | 0.00773
in n-butanol, 313.15 K | 0.00922
in n-butanol, 318.15 K | 0.011
in n-butanol, 323.15 K | 0.0133
in n-butanol, 328.15 K | 0.0159
in n-heptanol, 283.15 K | 0.00327
in n-heptanol, 288.15 K | 0.00369
in n-heptanol, 293.15 K | 0.00426
in n-heptanol, 298.15 K | 0.00496
in n-heptanol, 303.15 K | 0.00582
in n-heptanol, 308.15 K | 0.0069
in n-heptanol, 313.15 K | 0.00824
in n-heptanol, 318.15 K | 0.00987
in n-heptanol, 323.15 K | 0.0118
in n-heptanol, 328.15 K | 0.0145
in n-propanol, 283.15 K | 0.00399
in n-propanol, 288.15 K | 0.00463
in n-propanol, 293.15 K | 0.00542
in n-propanol, 298.15 K | 0.00646
in n-propanol, 303.15 K | 0.00764
in n-propanol, 308.15 K | 0.0091
in n-propanol, 313.15 K | 0.0108
in n-propanol, 318.15 K | 0.0129
in n-propanol, 325.15 K | 0.0158
in n-propanol, 328.15 K | 0.0188
